Measurements published in PubChem BioAssay (NCI).
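Test compounds were applied to cells in 96-well plates for 48 hours at 5 doses. GI50 = concentration required for 50% inhibition of growth. The concentration for full growth arrest is given as TGI.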

What follows are compounds tested on TK-10 renal (assay: DTP human tumour cell line panel, 48 h).

Question: `N#CC(C(=O)C(=O)Nc1c(Cl)cccc1Cl)c1ccccc1` (stereo unspecified) was tested. Which GI50 did it give?
Answer: > 100 µM

Question: And the TGI?
Answer: > 100 µM

Question: `COC(=O)C1C(C(=O)OC)C2C(=O)C3C(C(=O)OC)C(C(=O)OC)C3C(=O)C12` (stereo unspecified) was tested. Which TGI did it give?
Answer: > 100 µM

Question: With `O=C(NC12CC3CCC1CC(C3)C2)[C@@H]1CCCN1C(=O)OCc1ccccc1` (stereo partly specified) as the compound, how does the TGI read?
Answer: > 100 µM

Question: `O=C1NC(=O)c2c1n(Cc1ccccc1)c(=O)n2Cc1ccccc1` was tested. Which TGI did it give?
Answer: > 100 µM

Question: `Cc1nc(N)nc(CCC(=O)Nc2cccc(C(F)(F)F)c2)c1-c1ccc(Cl)cc1` was tested. Which TGI did it give?
Answer: > 100 µM

Question: For `COc1cc([C@@H]2c3cc4c(cc3[C@@H](NC(=O)c3ccc(C#N)cc3)C3COC(=O)[C@@H]32)OCO4)cc(OC)c1O` (stereo partly specified), which TGI is on record?
Answer: 4.86 µM

Question: `O=[N+]([O-])c1cccc(C2=NN(c3ccccc3)C3c4cc(Br)ccc4OCC23)c1` (stereo unspecified) was tested. Which TGI did it give?
Answer: > 100 µM

Question: How did the TGI turn out when `COc1cc2oc(-c3ccc(O)cc3)cc(=O)c2c(O)c1C1OC(CO)C(O)C(O)C1O` (stereo unspecified) was run?
Answer: > 100 µM

Question: `C[C@]12Cc3cn[nH]c3C(=O)C1CC[C@@H]1C2CC[C@@]2(C)C1CC[C@@H]2O` (stereo partly specified) was tested. Which TGI did it give?
Answer: > 100 µM

Question: What does the source list for `COc1ccc(OC)c(/C=C/c2nc(=S)n(-c3ccc(Cl)cc3)[nH]2)c1`?
Answer: GI50: 25.8 µM; TGI: > 100 µM

Question: How did the GI50 turn out when `CCn1cc(C(=O)O)c(=O)c2cc(F)c(N3CCN(S(=O)(=O)c4cccc5ccccc45)CC3)cc21` was run?
Answer: 7.6 µM

Question: And the TGI?
Answer: > 100 µM

Question: Which TGI does the source give for `CCn1c2c(c3ccccc3c1=O)C(=O)c1ccccc1-2` here?
Answer: > 100 µM

Question: With `NNC(=O)C(=O)N/N=C1/CCCC1C(=O)CCC(=O)Nc1ccc(Cl)cc1` (stereo unspecified) as the compound, how does the TGI read?
Answer: > 100 µM

Question: Which TGI does the source give for `COC(=O)CCC(NC(=S)N/N=C/c1cccs1)C(=O)OC` (stereo unspecified) here?
Answer: > 100 µM

Question: `O=c1/c(=C/c2ccccc2[N+](=O)[O-])sc2nnc(-c3cccnc3)n12` was tested. Which TGI did it give?
Answer: > 100 µM

Question: `O=[N+]([O-])c1ccc(Cl)c2c([N+](=O)[O-])cccc12` was tested. Which TGI did it give?
Answer: > 10 µM

Question: `COC(=O)/C=C(/C(=O)OC)C1(C)c2cc(C(=O)OC)c(C(=O)OC)c(N)c2C(=N)N1c1ccccc1` (stereo unspecified) was tested. Which TGI did it give?
Answer: > 100 µM

Question: Which results are given for `CCN1C(=S)N(CC)C2C1NC(=S)N2/N=C/C=C/c1ccccc1OC` (stereo unspecified)?
Answer: GI50: 7.69 µM; TGI: 98.9 µM

Question: `N#Cc1nc2c(S(=O)(=O)c3ccc(Cl)cc3)c(N)n(Nc3cccc(Cl)c3)c2nc1C#N` was tested. Which GI50 did it give?
Answer: 0.0207 µM

Question: `COC(=O)OC1C(O[C@H]2C[C@H]3[C@@H]4CC=C5C[C@@H](O)CC[C@]5(C)[C@H]4CC[C@]3(C)[C@H]2[C@H](C)C(=O)CCC(C)C)OCC(O)C1OC1OCC(O)C(O)C1OC(=O)c1ccc(OC)cc1` (stereo partly specified) was tested. Which GI50 did it give?
Answer: 0.496 µM

Question: What about the TGI of the same compound?
Answer: 17.5 µM

Question: How did the TGI turn out when `CCOC(=O)c1nc(C)oc1C(F)(F)F` was run?
Answer: > 100 µM

Question: `O=C1/C(=C\c2ccccc2)CN(C(=O)CCN2CCCCC2)C/C1=C/c1ccccc1` was tested. Which TGI did it give?
Answer: 10.9 µM

Question: With `Cc1ccc(S(=O)(=O)OCC/C(=C\[Si](C)(C)C)c2ccccc2)cc1` as the compound, how does the TGI read?
Answer: > 100 µM

Question: `COc1nc2c(c(O)c(C)c(=O)n2OC2OCC(OC(C)=O)C(OC(C)=O)C2OC(C)=O)c(=O)n1C` (stereo unspecified) was tested. Which TGI did it give?
Answer: > 100 µM

Question: `O=C(NC1C(=O)NNC1c1cccc([N+](=O)[O-])c1)c1ccccc1` (stereo unspecified) was tested. Which TGI did it give?
Answer: > 100 µM

What follows are compounds tested on HT29 colon (assay: DTP human tumour cell line panel, 48 h).

Question: `COc1ccc(OC)c(NCC(=O)n2nc(/C=C\c3ccc(O)c(OC)c3)cc2/C=C\c2ccc(O)c(OC)c2)c1` was tested. Which GI50 did it give?
Answer: 1.73 µM

Question: And the TGI?
Answer: 3.81 µM

Question: With `CC(Br)C(=O)NC(CO)C(=O)O` (stereo unspecified) as the compound, how does the TGI read?
Answer: > 100 µM

Question: `COc1cc(Nc2cnc3ccc(C(F)(F)F)cc3n2)cc(OC)c1OC` was tested. Which TGI did it give?
Answer: > 100 µM

Question: `O=C1[C@@H]2C(c3c(Cl)cccc3Cl)=NO[C@@H]2C(=O)N1c1ccc(Cc2ccc(N3C(=O)[C@H]4C(c5c(Cl)cccc5Cl)=NO[C@H]4C3=O)cc2)cc1` was tested. Which TGI did it give?
Answer: > 100 µM

Question: Which TGI does the source give for `O=C1NC2=C(CCCCC/C2=N\O)C12CCCCCC2` here?
Answer: > 100 µM

Question: Which TGI does the source give for `CCc1cccc(C)c1NC(=O)CCc1nc(=S)[nH][nH]1` here?
Answer: > 100 µM

Question: `N#C/C(=C\c1cc(OCc2ccccc2)c(OCc2ccccc2)cn1)C(N)=O` was tested. Which TGI did it give?
Answer: > 100 µM

Question: With `N#CC(C(=O)C(=O)Nc1c(Cl)cccc1Cl)c1ccccc1` (stereo unspecified) as the compound, how does the GI50 read?
Answer: > 100 µM

Question: And the TGI?
Answer: > 100 µM

Question: How did the TGI turn out when `COC(=O)C1C(C(=O)OC)C2C(=O)C3C(C(=O)OC)C(C(=O)OC)C3C(=O)C12` (stereo unspecified) was run?
Answer: > 100 µM

Question: `O=C(NC12CC3CCC1CC(C3)C2)[C@@H]1CCCN1C(=O)OCc1ccccc1` (stereo partly specified) was tested. Which TGI did it give?
Answer: > 100 µM

Question: Which TGI does the source give for `O=C1NC(=O)c2c1n(Cc1ccccc1)c(=O)n2Cc1ccccc1` here?
Answer: > 100 µM

Question: With `Cc1nc(N)nc(CCC(=O)Nc2cccc(C(F)(F)F)c2)c1-c1ccc(Cl)cc1` as the compound, how does the TGI read?
Answer: > 100 µM

Question: For `COc1cc([C@@H]2c3cc4c(cc3[C@@H](NC(=O)c3ccc(C#N)cc3)C3COC(=O)[C@@H]32)OCO4)cc(OC)c1O` (stereo partly specified), which TGI is on record?
Answer: 4.23 µM

Question: With `O=[N+]([O-])c1cccc(C2=NN(c3ccccc3)C3c4cc(Br)ccc4OCC23)c1` (stereo unspecified) as the compound, how does the TGI read?
Answer: > 100 µM

Question: How did the TGI turn out when `COc1cc2oc(-c3ccc(O)cc3)cc(=O)c2c(O)c1C1OC(CO)C(O)C(O)C1O` (stereo unspecified) was run?
Answer: > 100 µM

Question: With `C[C@]12Cc3cn[nH]c3C(=O)C1CC[C@@H]1C2CC[C@@]2(C)C1CC[C@@H]2O` (stereo partly specified) as the compound, how does the TGI read?
Answer: > 100 µM

Question: Which results are given for `COc1ccc(OC)c(/C=C/c2nc(=S)n(-c3ccc(Cl)cc3)[nH]2)c1`?
Answer: GI50: 3.67 µM; TGI: > 100 µM

Question: Which results are given for `CCn1cc(C(=O)O)c(=O)c2cc(F)c(N3CCN(S(=O)(=O)c4cccc5ccccc45)CC3)cc21`?
Answer: GI50: 3.95 µM; TGI: > 100 µM

Question: With `CCn1c2c(c3ccccc3c1=O)C(=O)c1ccccc1-2` as the compound, how does the TGI read?
Answer: > 100 µM

Question: With `NNC(=O)C(=O)N/N=C1/CCCC1C(=O)CCC(=O)Nc1ccc(Cl)cc1` (stereo unspecified) as the compound, how does the TGI read?
Answer: > 100 µM

Question: Which TGI does the source give for `COC(=O)CCC(NC(=S)N/N=C/c1cccs1)C(=O)OC` (stereo unspecified) here?
Answer: > 100 µM

Question: `O=c1/c(=C/c2ccccc2[N+](=O)[O-])sc2nnc(-c3cccnc3)n12` was tested. Which TGI did it give?
Answer: > 100 µM

Question: `O=[N+]([O-])c1ccc(Cl)c2c([N+](=O)[O-])cccc12` was tested. Which TGI did it give?
Answer: > 10 µM

Question: For `COC(=O)/C=C(/C(=O)OC)C1(C)c2cc(C(=O)OC)c(C(=O)OC)c(N)c2C(=N)N1c1ccccc1` (stereo unspecified), which TGI is on record?
Answer: 31.7 µM

Question: Which GI50 does the source give for `CCN1C(=S)N(CC)C2C1NC(=S)N2/N=C/C=C/c1ccccc1OC` (stereo unspecified) here?
Answer: 0.33 µM

Question: And the TGI?
Answer: 14.4 µM

Question: Which GI50 does the source give for `N#Cc1nc2c(S(=O)(=O)c3ccc(Cl)cc3)c(N)n(Nc3cccc(Cl)c3)c2nc1C#N` here?
Answer: 0.0295 µM

Question: For `COC(=O)OC1C(O[C@H]2C[C@H]3[C@@H]4CC=C5C[C@@H](O)CC[C@]5(C)[C@H]4CC[C@]3(C)[C@H]2[C@H](C)C(=O)CCC(C)C)OCC(O)C1OC1OCC(O)C(O)C1OC(=O)c1ccc(OC)cc1` (stereo partly specified), which GI50 is on record?
Answer: 0.0415 µM

Question: And the TGI?
Answer: > 27.5 µM

Question: How did the TGI turn out when `CCOC(=O)c1nc(C)oc1C(F)(F)F` was run?
Answer: > 100 µM

Question: Which TGI does the source give for `O=C1/C(=C\c2ccccc2)CN(C(=O)CCN2CCCCC2)C/C1=C/c1ccccc1` here?
Answer: 2.03 µM

Question: `Cc1ccc(S(=O)(=O)OCC/C(=C\[Si](C)(C)C)c2ccccc2)cc1` was tested. Which TGI did it give?
Answer: > 100 µM

Question: `COc1nc2c(c(O)c(C)c(=O)n2OC2OCC(OC(C)=O)C(OC(C)=O)C2OC(C)=O)c(=O)n1C` (stereo unspecified) was tested. Which TGI did it give?
Answer: > 100 µM

Question: `CCc1ccccc1NC(=O)c1cccc([N+](=O)[O-])c1O` was tested. Which TGI did it give?
Answer: > 100 µM

Question: With `O=C(NC1C(=O)NNC1c1cccc([N+](=O)[O-])c1)c1ccccc1` (stereo unspecified) as the compound, how does the TGI read?
Answer: > 100 µM

Question: Which GI50 does the source give for `CCCCCCCCCCCC[N+]1(CCCCCCCCCCCC)CCCC(C)C1` (stereo unspecified) here?
Answer: 0.186 µM

Question: And the TGI?
Answer: 1.09 µM
